Test results as given in patent publication US10597388B2, “Pyridazinone herbicides” (FMC CORPORATION, priority 2014, dated 2020).
Where two headings read alike, the source gives them in different places.

How the values were obtained:
Test in all cases: Test A greenhouse herbicide test, pre- and postemergence
Type in all cases: in vivo
[1] = tested on: barnyardgrass (Echinochloa crus-galli); details: Echinochloa crus-galli, 240 h; for pest or weed control at 125 g/ha: 125 g ai/ha; for pest or weed control at 500 g/ha: 500 g ai/ha, 0 to 100 scale
How it was run: (§1)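 Seeds in loam–sand blend received a preemergence directed soil spray; plants at 2–10 cm, one- to two-leaf stage, received postemergence sprays. Compounds in a non-phytotoxic solvent with surfactant. After about 10 d in a greenhouse, injury rated visually versus untreated controls on a 0–100 scale (100 = complete control).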

[2] = tested on: corn (Zea mays); details: Zea mays, post-emergence, 240 h, Postemergence; for Corn plant response rating (crop injury, 0 = no effect, 100 = complete kill) at 125 g/ha: 125 g ai/ha; for plant injury at 500 g/ha: 500 g ai/ha, 0 to 100 scale, 0 is no effect, 100 is complete control, read-out: Corn plant response rating
How it was run: as §1

[3] = tested on: foxtail, giant (giant foxtail, Setaria faberii); details: Setaria faberi, 240 h; for pest or weed control at 125 g/ha: 125 g ai/ha; for pest or weed control at 500 g/ha: 500 g ai/ha, 0 to 100 scale
How it was run: as §1

[4] = tested on: kochia (Kochia scoparia); details: Bassia scoparia, 240 h; for pest or weed control at 125 g/ha: 125 g ai/ha; for pest or weed control at 500 g/ha: 500 g ai/ha, 0 to 100 scale
How it was run: as §1

[5] = tested on: pigweed (Amaranthus retroflexus); details: Amaranthus retroflexus, 240 h; for pest or weed control at 125 g/ha: 125 g ai/ha; for pest or weed control at 500 g/ha: 500 g ai/ha, 0 to 100 scale
How it was run: as §1

[6] = tested on: ragweed (common ragweed, Ambrosia elatior); details: Ambrosia artemisiifolia, 240 h; for pest or weed control at 125 g/ha: 125 g ai/ha; for pest or weed control at 500 g/ha: 500 g ai/ha, 0 to 100 scale
How it was run: as §1

[7] = tested on: ryegrass, Italian (Italian ryegrass, Lolium multiflorum); details: Lolium multiflorum, 240 h; for pest or weed control at 125 g/ha: 125 g ai/ha; for pest or weed control at 500 g/ha: 500 g ai/ha, 0 to 100 scale
How it was run: as §1

[8] = tested on: wheat (Triticum aestivum); details: Triticum aestivum, post-emergence, 240 h, Postemergence; for plant injury at 125 g/ha: 125 g ai/ha, read-out: Plant response rating, Wheat; for plant injury at 500 g/ha: 500 g ai/ha, 0 to 100 scale, 0 is no effect, 100 is complete control, read-out: Wheat plant response rating
How it was run: as §1

[9] = post-emergence, Postemergence, 0 is no effect, 100 is complete control, read-out: Barnyardgrass plant response rating
[10] = pre-emergence, Preemergence, 0 to 100 scale where 0 is no effect and 100 is complete control, read-out: Barnyardgrass plant response rating
[11] = pre-emergence, Preemergence, 0 no effect, 100 complete control, read-out: Plant response rating, Barnyardgrass
[12] = 0 to 100 scale where 0 is no effect and 100 is complete control
[13] = post-emergence, Postemergence, 0 is no effect, 100 is complete control, read-out: Foxtail, Giant plant response rating
[14] = pre-emergence, Preemergence, 0 to 100 scale where 0 is no effect and 100 is complete control, read-out: Foxtail, Giant plant response rating
[15] = pre-emergence, Preemergence, 0 no effect, 100 complete control, read-out: Plant response rating, Foxtail, Giant
[16] = post-emergence, Postemergence, 0 is no effect, 100 is complete control, read-out: Kochia plant response rating
[17] = pre-emergence, Preemergence, 0 to 100 scale where 0 is no effect and 100 is complete control, read-out: Kochia plant response rating
[18] = pre-emergence, Preemergence, 0 no effect, 100 complete control, read-out: Plant response rating, Kochia
[19] = post-emergence, Postemergence, 0 is no effect, 100 is complete control, read-out: Pigweed plant response rating
[20] = pre-emergence, Preemergence, 0 to 100 scale where 0 is no effect and 100 is complete control, read-out: Pigweed plant response rating
[21] = pre-emergence, Preemergence, 0 no effect, 100 complete control, read-out: Plant response rating, Pigweed
[22] = post-emergence, Postemergence, 0 is no effect, 100 is complete control, read-out: Ragweed plant response rating
[23] = pre-emergence, Preemergence, 0 to 100 scale where 0 is no effect and 100 is complete control, read-out: Ragweed plant response rating
[24] = pre-emergence, Preemergence, 0 no effect, 100 complete control, read-out: Plant response rating, Ragweed
[25] = post-emergence, Postemergence, 0 is no effect, 100 is complete control, read-out: Ryegrass, Italian plant response rating
[26] = pre-emergence, Preemergence, 0 to 100 scale where 0 is no effect and 100 is complete control, read-out: Ryegrass, Italian plant response rating
[27] = pre-emergence, Preemergence, 0 no effect, 100 complete control, read-out: Plant response rating, Ryegrass, Italian
[28] = visual rating after approx. 10 d, 0 to 100 scale (0 no effect, 100 complete control)

| Structure (SMILES) | pest or weed control at 500 g/ha [1, 9] [%] | pest or weed control at 125 g/ha [1, 10] [%] | pest or weed control at 500 g/ha [1, 11] [%] | plant injury at 500 g/ha [2] [%] | pest or weed control at 500 g/ha [3, 13] [%] | pest or weed control at 125 g/ha [3, 14] [%] | pest or weed control at 500 g/ha [3, 15] [%] | pest or weed control at 500 g/ha [4, 16] [%] | pest or weed control at 125 g/ha [4, 17] [%] | pest or weed control at 500 g/ha [4, 18] [%] | pest or weed control at 500 g/ha [5, 19] [%] | pest or weed control at 125 g/ha [5, 20] [%] | pest or weed control at 500 g/ha [5, 21] [%] | pest or weed control at 500 g/ha [6, 22] [%] | pest or weed control at 125 g/ha [6, 23] [%] | pest or weed control at 500 g/ha [6, 24] [%] | pest or weed control at 500 g/ha [7, 25] [%] | pest or weed control at 125 g/ha [7, 26] [%] | pest or weed control at 500 g/ha [7, 27] [%] | plant injury at 500 g/ha [8] [%] | other results |
| --- | --- | --- | --- | --- | --- | --- | --- | --- | --- | --- | --- | --- | --- | --- | --- | --- | --- | --- | --- | --- | --- |
| COc1nn(C)c(=O)c(-c2c(C)c(C)cc3ccccc23)c1O [Compound 46, 4-(2,3-dimethyl-1-naphthalenyl)-5-hydroxy-6-methoxy-2-methyl-3(2H)-pyridazinone] | 80 | 20 | 60 | 0 | 80 | 50 | 90 | 40 | 30 | 30 | 90 | 30 | 100 | 90 | 50 | 80 | 80 | 30 | 50 | 20 | pest or weed control at 125 g/ha ([1]; post-emergence, Postemergence, 0 to 100 scale where 0 is no effect and 100 is complete control, read-out: Plant response rating, Barnyardgrass): 20%; Corn plant response rating (crop injury, 0 = no effect, 100 = complete kill) at 125 g/ha [2, 12]: 0%; pest or weed control at 125 g/ha ([3]; post-emergence, Postemergence, 0 to 100 scale where 0 is no effect and 100 is complete control, read-out: Plant response rating, Foxtail, Giant): 50%; pest or weed control at 125 g/ha ([4]; post-emergence, Postemergence, 0 to 100 scale where 0 is no effect and 100 is complete control, read-out: Plant response rating, Kochia): 30%; pest or weed control at 125 g/ha ([5]; post-emergence, Postemergence, 0 to 100 scale where 0 is no effect and 100 is complete control, read-out: Plant response rating, Pigweed): 70%; pest or weed control at 125 g/ha ([6]; post-emergence, Postemergence, 0 to 100 scale where 0 is no effect and 100 is complete control, read-out: Plant response rating, Ragweed): 80%; pest or weed control at 125 g/ha ([7]; post-emergence, Postemergence, 0 to 100 scale where 0 is no effect and 100 is complete control, read-out: Plant response rating, Ryegrass, Italian): 30%; plant injury at 125 g/ha [8, 12]: 0% |
| CC(=O)Oc1c(C)nn(C)c(=O)c1-c1c(C)oc2c(C)cccc12 [Compound 15, 5-(acetyloxy)-4-(2,7-dimethyl-3-benzofuranyl)-2,6-dimethyl-3(2H)-pyridazinone] | 90 | 20 | 90 | 20 | 90 | 10 | 70 | 50 | 0 | 0 | 0 | 0 | 0 | 50 | 0 | 30 | 90 | 50 | 100 | 0 | pest or weed control at 125 g/ha ([1]; post-emergence, Postemergence, visual rating after approx. 10 d, 0 to 100 scale (0 no effect, 100 complete control), read-out: Plant response rating, Barnyardgrass): 70%; Corn plant response rating (crop injury, 0 = no effect, 100 = complete kill) at 125 g/ha [2, 28]: 0%; pest or weed control at 125 g/ha ([3]; post-emergence, Postemergence, visual rating after approx. 10 d, 0 to 100 scale (0 no effect, 100 complete control), read-out: Plant response rating, Foxtail, Giant): 70%; pest or weed control at 125 g/ha ([4]; post-emergence, Postemergence, visual rating after approx. 10 d, 0 to 100 scale (0 no effect, 100 complete control), read-out: Plant response rating, Kochia): 50%; pest or weed control at 125 g/ha ([5]; post-emergence, Postemergence, visual rating after approx. 10 d, 0 to 100 scale (0 no effect, 100 complete control), read-out: Plant response rating, Pigweed): 0%; pest or weed control at 125 g/ha ([6]; post-emergence, Postemergence, visual rating after approx. 10 d, 0 to 100 scale (0 no effect, 100 complete control), read-out: Plant response rating, Ragweed): 50%; pest or weed control at 125 g/ha ([7]; post-emergence, Postemergence, visual rating after approx. 10 d, 0 to 100 scale (0 no effect, 100 complete control), read-out: Plant response rating, Ryegrass, Italian): 50%; plant injury at 125 g/ha [8, 28]: 0% |
